Each compound was assayed on sleep of mice (assay: Effect on 24-hour sleep of mice (EEG and electromyograph recording)). Conditions: standard substances dosed according to their identified contents in the extract; intragastric, D1 to D14; FIG. 3.
Assay type: in vivo, Male Bal b/c mice
Description: The BAL b/c mice is used as a model in the present invention, and the electrophysiological technology is adopted, wherein electrodes are implanted in the brain of the mice, and the brain wave changes of mice after drug administration is real time 24-hour monitored for 14 days, thereby determining that the functional active substances in the peanut stem and leaf extract provided by the present invention have a significant sleep promoting function.
Experiment of the effect of the peanut stem and leaf extract prepared in Example 1 on sleep of mice
The peanut stem and leaf extract prepared according to the method of Example 1 was used as an experimental drug, and the standard drugs were administered to the mice according to the identified contents of the substances such as naringenin-4,7′-dimethyl ether.
The experiment was divided into a control group, extract groups (three groups of low, medium and high doses), a positive control group and a functional factor group (four functional active substances). Male Bal b/c mice were used, 6 mice for each group.
The mice were anesthetized at abdominal cavity with chloral hydrate (4%) at 0.10 mL/10 g. After the pain reflex disappeared, the mice were fixed on a mouse brain stereotactic adapter, and the hair on the head of the mice was cut off and 75% alcohol was used to disinfect the skin, the skin was cut along the midline of the skull, and the subcutaneous tissue was separated to fully expose the skull. […] The electroencephalo-graph (EEG) electrodes were fixed on the skull with tissue glue and dental cement successively, and the EEG electrode was connected to a screw (fixed in the hole drilled on the skull) to touch the cerebral dura mater by a silver wire to record cortical EEG activity. The two silver wires connected to the myoelectric electrodes were inserted into the muscles on both sides of the neck of the mouse to record the myoelectric activity. The electrode base was then fixed to the skull with tissue glue and dental cement. Mice were injected with penicillin after surgery (measuring 80,000 units/day for three consecutive days). The mice were raised separately in a shielding box with constant temperature, constant humidity, sound insulation and electrostatic shielding function during the recovery period after surgery. The cables for recording EEG and myoelectricity were connected to the electrodes on the head of the mouse on the second day after surgery, and the mice were allowed to adapt for 7 days. […] The EEG and electromyograph of mice that recovered and adapted to the experimental environment began to be recorded from 8:00 in the morning for 24 hours, and this day was recorded as D0. […] The EEG and electromyograph were recorded on the D7 and D14, and the brain tissue was taken after gavage at 8:00 in the morning on D15.

Row | Compound | sleep time of mice (24-hour sleep)
1 | C=CC(C)(O)CCC=C(C)C (stereo not shown) [linalool] | significantly improve
2 | COc1cc(/C=C/C(=O)O)ccc1O [ferulic acid] | significantly improve
3 | COc1cc(O)ccc1C(=O)/C=C/c1ccc(O)cc1 [2′-O-methylisoliquiritigenin] | significantly improve
4 | COc1ccc(C2CC(=O)c3c(O)cc(OC)cc3O2)cc1 (stereo not shown) [naringenin-4,7′-dimethyl ether] | significantly improve
